Reference: PubChem BioAssay AID1963420 (Molecular Pharmacology Branch, DTP, NCI, 2024)

Tested on: 494315-158-R-J1-PDC complex spheroid growth, percent test/control
Assay: Anticancer human tumor 494315-158-R-J1-PDC patient-derived soft tissue sarcoma cell line growth inhibition [Asc]
Conditions: for IC50: curve of first compound; for viability, T/C: stronger effect = lower value
In short: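 Concentration series start at each agent's clinical Cmax, or at 10 microM when none is established, and drop in half-log steps; agents are applied alone or together to complex spheroids built with HUVEC and hMSC.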

[1] = second compound 0.1 µM, first compound 0.0316 µM
[2] = second compound 0.1 µM, first compound 0.1 µM
[3] = second compound 0.1 µM, first compound 0.316 µM
[4] = second compound 0.1 µM, first compound 1 µM
[5] = second compound 0.1 µM, first compound 3.16 µM
[6] = second compound 0.1 µM, first compound 10 µM
[7] = second compound 0.316 µM, first compound 0.0316 µM
[8] = second compound 0.316 µM, first compound 0.1 µM
[9] = second compound 0.316 µM, first compound 0.316 µM
[10] = second compound 0.316 µM, first compound 1 µM
[11] = second compound 0.316 µM, first compound 3.16 µM
[12] = second compound 0.316 µM, first compound 10 µM
[13] = second compound 1 µM, first compound 0.0316 µM
[14] = second compound 1 µM, first compound 0.1 µM
[15] = second compound 1 µM, first compound 0.316 µM
[16] = second compound 1 µM, first compound 1 µM
[17] = second compound 1 µM, first compound 3.16 µM
[18] = second compound 1 µM, first compound 10 µM
[19] = second compound 3.16 µM, first compound 0.0316 µM
[20] = second compound 3.16 µM, first compound 0.1 µM
[21] = second compound 3.16 µM, first compound 0.316 µM
[22] = second compound 3.16 µM, first compound 1 µM
[23] = second compound 3.16 µM, first compound 3.16 µM
[24] = second compound 3.16 µM, first compound 10 µM
[25] = second compound 10 µM, first compound 0.0316 µM
[26] = second compound 10 µM, first compound 0.1 µM
[27] = second compound 10 µM, first compound 0.316 µM
[28] = second compound 10 µM, first compound 1 µM
[29] = second compound 10 µM, first compound 3.16 µM
[30] = second compound 10 µM, first compound 10 µM
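Also: compound exposure lasted seven days after spheroids formed for three days.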

Compound: C=C(F)C(=O)N1CCN(c2nc(OCC3CCCN3C)nc3c2CCN(c2cccc4cccc(Cl)c24)C3)CC1CC#N (stereo not given) + Cc1c(S(C)(=O)=O)c(-c2cc(F)cc(N3CCN(c4ccc(NS(=O)(=O)c5ccc(NC(CCN6CCC(C(=O)OCCCP(=O)(O)O)CC6)CSc6ccccc6)c(S(=O)(=O)C(F)(F)F)c5)cc4)CC3)c2)c(-c2ccc(Cl)cc2)n1C(C)C
- IC50 (second compound 0.1 µM): 1810 nM
- IC50 (second compound 0.316 µM): 1340 nM
- IC50 (second compound 1 µM): 1370 nM
- IC50 (second compound 3.16 µM): 367 nM
- IC50 (second compound 10 µM): 1470 nM
- viability, T/C [1]: 77.7%
- viability, T/C [2]: 79.6%
- viability, T/C [3]: 71.8%
- viability, T/C [4]: 73.7%
- viability, T/C [5]: 27.8%
- viability, T/C [6]: 0.16%
- viability, T/C [7]: 73.5%
- viability, T/C [8]: 72.7%
- viability, T/C [9]: 75.1%
- viability, T/C [10]: 57%
- viability, T/C [11]: 25.6%
- viability, T/C [12]: 0.14%
- viability, T/C [13]: 64.3%
- viability, T/C [14]: 67%
- viability, T/C [15]: 65.5%
- viability, T/C [16]: 61.1%
- viability, T/C [17]: 20.6%
- viability, T/C [18]: 0.12%
- viability, T/C [19]: 55.9%
- viability, T/C [20]: 53.4%
- viability, T/C [21]: 47.8%
- viability, T/C [22]: 41.1%
- viability, T/C [23]: 11.1%
- viability, T/C [24]: 0.15%
- viability, T/C [25]: 75.8%
- viability, T/C [26]: 78.5%
- viability, T/C [27]: 73.5%
- viability, T/C [28]: 65.3%
- viability, T/C [29]: 20%
- viability, T/C [30]: 0.24%

Compound: C=CC(=O)N1CCN(c2nc(=O)n(-c3c(C)ccnc3C(C)C)c3nc(-c4c(O)cccc4F)c(F)cc23)C(C)C1 (stereo not given) + Cc1c(S(C)(=O)=O)c(-c2cc(F)cc(N3CCN(c4ccc(NS(=O)(=O)c5ccc(NC(CCN6CCC(C(=O)OCCCP(=O)(O)O)CC6)CSc6ccccc6)c(S(=O)(=O)C(F)(F)F)c5)cc4)CC3)c2)c(-c2ccc(Cl)cc2)n1C(C)C
- IC50 (second compound 0.1 µM): > 10000 nM
- IC50 (second compound 0.316 µM): > 10000 nM
- IC50 (second compound 1 µM): > 10000 nM
- IC50 (second compound 3.16 µM): > 10000 nM
- IC50 (second compound 10 µM): > 10000 nM
- viability, T/C [1]: 101%
- viability, T/C [2]: 84.5%
- viability, T/C [3]: 88.9%
- viability, T/C [4]: 100%
- viability, T/C [5]: 108%
- viability, T/C [6]: 91.7%
- viability, T/C [7]: 67.4%
- viability, T/C [8]: 75.3%
- viability, T/C [9]: 72.2%
- viability, T/C [10]: 89.9%
- viability, T/C [11]: 80%
- viability, T/C [12]: 78.3%
- viability, T/C [13]: 86.4%
- viability, T/C [14]: 63.5%
- viability, T/C [15]: 74.1%
- viability, T/C [16]: 79.3%
- viability, T/C [17]: 84%
- viability, T/C [18]: 66%
- viability, T/C [19]: 61.1%
- viability, T/C [20]: 60.2%
- viability, T/C [21]: 69.5%
- viability, T/C [22]: 79.9%
- viability, T/C [23]: 81.4%
- viability, T/C [24]: 60.9%
- viability, T/C [25]: 81.3%
- viability, T/C [26]: 84.5%
- viability, T/C [27]: 92.8%
- viability, T/C [28]: 90.1%
- viability, T/C [29]: 98.5%
- viability, T/C [30]: 67.3%

Compound: CCN1C(C(=O)NC23CCC(C(=O)O)(CC2)CC3)C(c2cccc(Cl)c2F)C2(C(=O)Nc3cc(Cl)ccc32)C12CCCCC2 (stereo not given) + Cc1c(S(C)(=O)=O)c(-c2cc(F)cc(N3CCN(c4ccc(NS(=O)(=O)c5ccc(NC(CCN6CCC(C(=O)OCCCP(=O)(O)O)CC6)CSc6ccccc6)c(S(=O)(=O)C(F)(F)F)c5)cc4)CC3)c2)c(-c2ccc(Cl)cc2)n1C(C)C
- IC50 (second compound 0.1 µM): > 3000 nM
- IC50 (second compound 0.316 µM): > 3000 nM
- IC50 (second compound 1 µM): 1020 nM
- IC50 (second compound 3.16 µM): 71.7 nM
- IC50 (second compound 10 µM): > 3000 nM
- viability, T/C (second compound 0.1 µM, first compound 0.00949 µM): 80.3%
- viability, T/C (second compound 0.1 µM, first compound 0.03 µM): 86.6%
- viability, T/C (second compound 0.1 µM, first compound 0.0949 µM): 84.4%
- viability, T/C (second compound 0.1 µM, first compound 0.3 µM): 77.4%
- viability, T/C (second compound 0.1 µM, first compound 0.949 µM): 77.4%
- viability, T/C (second compound 0.1 µM, first compound 3 µM): 67%
- viability, T/C (second compound 0.316 µM, first compound 0.00949 µM): 79.1%
- viability, T/C (second compound 0.316 µM, first compound 0.03 µM): 74.9%
- viability, T/C (second compound 0.316 µM, first compound 0.0949 µM): 64.4%
- viability, T/C (second compound 0.316 µM, first compound 0.3 µM): 60.7%
- viability, T/C (second compound 0.316 µM, first compound 0.949 µM): 63.3%
- viability, T/C (second compound 0.316 µM, first compound 3 µM): 54.3%
- viability, T/C (second compound 1 µM, first compound 0.00949 µM): 66%
- viability, T/C (second compound 1 µM, first compound 0.03 µM): 66.3%
- viability, T/C (second compound 1 µM, first compound 0.0949 µM): 68.8%
- viability, T/C (second compound 1 µM, first compound 0.3 µM): 62.8%
- viability, T/C (second compound 1 µM, first compound 0.949 µM): 50.8%
- viability, T/C (second compound 1 µM, first compound 3 µM): 39.7%
- viability, T/C (second compound 3.16 µM, first compound 0.00949 µM): 53.3%
- viability, T/C (second compound 3.16 µM, first compound 0.03 µM): 45.1%
- viability, T/C (second compound 3.16 µM, first compound 0.0949 µM): 53.8%
- viability, T/C (second compound 3.16 µM, first compound 0.3 µM): 46.5%
- viability, T/C (second compound 3.16 µM, first compound 0.949 µM): 45.8%
- viability, T/C (second compound 3.16 µM, first compound 3 µM): 35.6%
- viability, T/C (second compound 10 µM, first compound 0.00949 µM): 83%
- viability, T/C (second compound 10 µM, first compound 0.03 µM): 73.3%
- viability, T/C (second compound 10 µM, first compound 0.0949 µM): 68.4%
- viability, T/C (second compound 10 µM, first compound 0.3 µM): 68.5%
- viability, T/C (second compound 10 µM, first compound 0.949 µM): 52.8%
- viability, T/C (second compound 10 µM, first compound 3 µM): 52.8%
